Where a SMILES comes first, the peptide text is derived from it. Bridges are numbered along the chain shown (N, C = ends). [ ]: non-standard residue; d: D form. The star is where a group is joined. Phe(3,5-F2) = N[C@@H](Cc1cc(F)cc(F)c1)C(=O)O; Heptenoyl(2E) = CCCC/C=C/C(=O)*; aThr = C[C@H](O)[C@H](N)C(=O)O; Pip = O=C(O)[C@@H]1CCCCN1
Experiments:
[1] = biological target: T1, HsCIpP (Homo sapiens, UniProt Q16740, P57S); assay: Protease activity assay (casein-FITC degradation) with ADEP, independent of HsCIpX; type: biochemical; conditions: 3 μM HsCIpP, 10 μM casein-FITC, no HsCIpX; read-out: K0.5 (microscopic apparent dissociation constant), protease activity
T1 construct: 2x(His6-thrombin)-SUMO (N, cleaved yes); made in house; host or cells: E. coli (SG1146 stated for HsClpP; 'a similar protocol' for HsClpX)
Experimental: The protease activity of purified HsCIpP was assessed by monitoring the degradation of bovine milk casein labelled with fluorescein isothiocyanate (casein-FITC) (Sigma-Aldrich) in the presence of ADEP and/or purified HsCIpX. All reactions were carried out in 25 mM HEPES, pH 7.5, 35 mM KCl, 25 mM MgCl2, 0.03% Tween-20, 10% glycerol, and 1 mM DTT, supplemented with 16 mM creatine phosphate and 300 μM ATP. HsCIpP was used at 3 μM (final monomeric concentration) and casein-FITC was added at the final concentration of 10 μM. 13 U of creatine phosphokinase (Sigma-Aldrich) was also added for ATP regeneration. DMSO was present at 1% (v:v) final concentration in the experiments that involve the use of ADEP analogs. All reactions were carried out with 150 μL of the reaction mix per well in a 96-well black flat-bottom plate at 37° C. Degradation of casein-FITC and subsequent release of the free FITC moiety was monitored by fluorescence with λex=494 nm and λem=518 nm using the EnSpire 2300 Multilabel Reader set to perform a reading every 40 s with 20 flashes. A total of 100 readings were collected in each experiment. […]
The effect of ADEP in activating HsCIpP was assessed via the degradation of casein-FITC by HsCIpP independent of HsCIpX. […] Initial rates data were collected and analyzed using the Hill equation above to determine Vmax, h and K0.5 for each ADEP analog. […]

[2] = tested on: undifferentiated SH-SY5Y cells; assay: Cytotoxicity, SRB staining
Experimental: To assess the cytotoxicity of ADEP analogs, cells were seeded at 1×10^3 or 2×10^3 cells in 50 μL per well on sterile 96-well flat-bottom tissue culture plates (VWR). Growth media without any cells was included as a control. Cells were grown for at least 24 hours to allow proper adherence to the growth surface. Afterwards, ADEP analogs were serially diluted and introduced to the tissue cultures via fresh growth media at 50 μL per well. Inclusion of activators/DMSO brought the final DMSO concentration of the growth media up to a maximum of 0.5% (v:v). […] A total of four independent replicates were prepared for each cell line and for each growth condition used. Cells were grown in the presence of ADEP/DMSO for 72 hours.
To assess cell survival, live adherent cells were fixed with 10% (w:v) trichloroacetic acid (TCA) at 4° C. for 1-2 hours. The tissue culture plates were then rinsed with water to remove dead cells and cell debris and air-dried overnight. […] Absorbance at λ=510 nm (A510) was then measured using the EnSpire 2300 Multilabel Reader. […]
To determine the IC50 for the ADEP analogs, relative cell viability (RCV) values were calculated by normalizing the A510 readings in ADEP-containing sample to the DMSO-only control. […]

T1 sequence (Q16740 57-277 P57S): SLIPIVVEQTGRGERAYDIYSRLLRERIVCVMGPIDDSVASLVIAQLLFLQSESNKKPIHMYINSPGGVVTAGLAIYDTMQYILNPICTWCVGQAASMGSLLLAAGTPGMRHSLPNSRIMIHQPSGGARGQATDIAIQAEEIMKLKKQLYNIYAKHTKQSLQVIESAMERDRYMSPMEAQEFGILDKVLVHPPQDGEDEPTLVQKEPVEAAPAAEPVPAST

CCCC/C=C/C(=O)N[C@@H](Cc1cc(F)cc(F)c1)C(=O)N[C@@H]1C(=O)N2CCC[C@H]2C(=O)N2CCCC[C@H]2C(=O)N[C@@H](C)C(=O)N2CCC[C@H]2C(=O)O[C@H]1C [ADEP-41] ({Heptenoyl(2E)}-[Phe(3,5-F2)][aThr]P[Pip]AP; ester 2-C)
Kd [1]: 120 nM
IC50 compared across cell lines [2]: slightly higher value

From patent US20210171576A1, “METHODS FOR TREATING CANCER WITH ACYLDEPSIPEPTIDE ANALOGS” (priority 2018, published 2021)
